Patent publication EP1377579B1 (Aventis Pharmaceuticals Inc., priority 2000, dated 2002)
Structures can show the parent of a compound that is named as a salt.

Assays:
MDA-MB-435 = test: In vitro proliferation assay (MTT), MDA-MB-435; assay type: cell-based, human; settings: Homo sapiens, MDA-MB-435, MTT assay; value (SD, n) where given; read-out: MB-435 Breast (IC50 µM)
Protocol: (§1) The proliferation of tumor cells can be measured using a tetrazolium salt-based assay known as the MTT (3-[4,5-Dimethylthiazol-2-yl]-2,5-diphenyltetrazolium bromide) assay. […] For the assay, the cell lines are plated onto 96 well plates at 1000 to 2500 cells/well (depending on the properties of the individual cell lines), left to attach and recover overnight. […] After 3 days, the cells are incubated with MTT dye (3-[4,5-Dimethylthiazol-2-yl]-2,5-diphenyltetrazolium bromide, Sigma # M5655, 10 mg/ml in Hank's Buffered Saline) to estimate the amount of live cells remaining vs. concentration for the test compounds. […] The MTT and culture medium is then removed from the cultures and 200 µl of DMSO is added to solubilize the dye from the cell layer. The absorbance at 570 nm is determined for each culture using a Spectramax plate reader (Molecular Devices).
(§2) IC50s were determined from the raw data from either the MTT or SRB assays.
(§3) All of the cell lines were obtained from American Type Tissue Collection, with the ATCC accession number in parentheticals. MCF-7 and MDA-MB-231 cells were grown in improved minimum essential medium (Biofluids) without phenol red, supplemented with 5 % fetal bovine serum, 0.01 mg/ml gentamicin and 3 mM L-glutamine.

PC-3 = test: In vitro proliferation assay (MTT), PC-3; assay type: cell-based, human; settings: Homo sapiens, PC-3, MTT assay; value (SD, n) where given; read-out: PC-3 Prostate (IC50 µM)
Protocol: as §1, §2, §3

cdk2/cyclin E = cdk2/cyclin E (Homo sapiens, UniProt P24941); test: Cyclin-dependent kinase assay, cdk2/cyclin E; settings: CDK2 IC50, nM, GST-pRb substrate, 10 µM ATP
cdk4/cyclin D1 = cdk4/cyclin D1 (Homo sapiens, UniProt P11802); test: Cyclin-dependent kinase assay, cdk4/cyclin D1; assay type: biochemical; settings: cyclin D1/cdk4; GST-pRb substrate, 10 µM ATP
cdk4/cyclin D1, sequence (P11802 whole entry): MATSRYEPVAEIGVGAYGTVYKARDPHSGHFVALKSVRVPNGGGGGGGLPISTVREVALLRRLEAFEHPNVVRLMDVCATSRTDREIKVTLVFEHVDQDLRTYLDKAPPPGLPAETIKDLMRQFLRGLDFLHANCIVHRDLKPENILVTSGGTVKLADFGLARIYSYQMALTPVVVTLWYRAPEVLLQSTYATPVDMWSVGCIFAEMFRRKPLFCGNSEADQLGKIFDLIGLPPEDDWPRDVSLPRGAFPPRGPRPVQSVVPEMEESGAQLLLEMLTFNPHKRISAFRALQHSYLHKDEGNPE
cdk4/cyclin D1, sequence (P24385 whole entry partner): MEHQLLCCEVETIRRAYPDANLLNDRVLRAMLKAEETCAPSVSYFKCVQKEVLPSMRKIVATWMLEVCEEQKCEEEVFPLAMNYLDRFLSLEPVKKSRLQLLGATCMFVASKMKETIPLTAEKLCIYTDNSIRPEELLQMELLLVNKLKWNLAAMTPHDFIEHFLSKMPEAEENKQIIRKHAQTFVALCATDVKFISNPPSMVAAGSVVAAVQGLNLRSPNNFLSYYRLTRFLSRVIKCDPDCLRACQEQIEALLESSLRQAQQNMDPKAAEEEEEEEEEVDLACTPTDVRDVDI

cdk1/cyclin B = cdk1/cyclin B (Homo sapiens, UniProt P06493); test: Cyclin-dependent kinase assay, cdk1/cyclin B; settings: CDK1 IC50, nM, Histone H1, 10 µM ATP
cdk1/cyclin B, sequence (P06493 whole entry): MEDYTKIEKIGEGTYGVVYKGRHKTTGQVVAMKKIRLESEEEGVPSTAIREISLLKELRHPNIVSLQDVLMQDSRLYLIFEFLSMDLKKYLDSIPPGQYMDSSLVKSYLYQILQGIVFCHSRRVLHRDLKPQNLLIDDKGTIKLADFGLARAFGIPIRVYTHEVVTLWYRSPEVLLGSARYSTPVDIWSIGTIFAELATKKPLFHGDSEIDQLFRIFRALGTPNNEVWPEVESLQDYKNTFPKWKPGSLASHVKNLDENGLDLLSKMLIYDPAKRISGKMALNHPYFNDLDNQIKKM
cdk1/cyclin B, sequence (P14635 whole entry partner): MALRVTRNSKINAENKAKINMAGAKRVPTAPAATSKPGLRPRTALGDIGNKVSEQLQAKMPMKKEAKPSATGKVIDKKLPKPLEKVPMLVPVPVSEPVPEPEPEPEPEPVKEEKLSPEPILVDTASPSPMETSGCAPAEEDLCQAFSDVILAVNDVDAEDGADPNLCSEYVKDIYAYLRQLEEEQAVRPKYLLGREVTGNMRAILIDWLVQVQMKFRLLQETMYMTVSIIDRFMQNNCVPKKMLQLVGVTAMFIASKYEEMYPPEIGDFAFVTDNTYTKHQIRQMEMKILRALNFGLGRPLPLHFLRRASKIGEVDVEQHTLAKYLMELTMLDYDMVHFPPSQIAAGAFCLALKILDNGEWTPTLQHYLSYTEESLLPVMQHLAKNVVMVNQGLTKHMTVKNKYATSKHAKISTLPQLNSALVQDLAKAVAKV

Row | Compound | IC50 (MDA-MB-435) [µM] | IC50 (PC-3) [µM] | IC50 (cdk2/cyclin E) [nM] | IC50 (cdk4/cyclin D1) [nM] | IC50 (cdk1/cyclin B) [nM]
1 | NC1CCC(Nc2nc(NC3CCN(C(=O)C4CC4c4ccccc4)CC3)c3ncn(C4CCCC4)c3n2)CC1 (racemic) [compound 43, (±)-trans-1-{4-[2-(4-Amino-cyclohexylamino)-9-cyclopentyl-9H-purin-6-ylamino]-piperidin-1-y1}-1-(2-phenyl-cyclopropyl)-methanone dihydrochloride] | 0.47 | 0.59 | 77 | – | –
2 | N[C@H]1CC[C@H](Nc2nc(NC3CCN(C(=O)C(O)c4ccccc4)CC3)c3ncn(C4CCCC4)c3n2)CC1 (mixture of isomers) [compound 50, (±)-trans-1-{4-[2-(4-Amino-cyclohexylamino)-9-cyclopentyl-9H-purin-6-ylamino]-piperidin-1-yl}-2-hydroxy-2-phenyl-ethanone dihydrochloride] | 1.67 | 1.58 | 44 | 206 | 43
3 | CCCCC(CC)C(=O)N1CCC(Nc2nc(N[C@H]3CC[C@H](N)CC3)nc3c2ncn3C2CCCC2)CC1 (mixture of isomers) [compound 57, (±)-trans-1-{4-[2-(4-Amino-cyclohexylamino)-9-cyclopentyl-9H-purin-6-ylamino]-piperidin-1-yl}-2-ethyl-hexan-1-one dihydrochloride] | 0.96 | 1.13 | 480 | 1300 | 193
4 | CCCCC(CC)COC(=O)N1CCC(Nc2nc(N[C@H]3CC[C@H](N)CC3)nc3c2ncn3C2CCCC2)CC1 (mixture of isomers) [compound 97, (±)-trans-4-[2-(4-Amino-cyclohexylamino)-9-cyclopentyl-9H-purin-6-ylamino]-piperidine-1-carboxylic acid 2-ethyl-hexyl ester dihydrochloride] | 1.52 | 1.65 | – | – | –
5 | N[C@H]1CC[C@H](Nc2nc(NC3CCN(C(=O)NC4CC4c4ccccc4)CC3)c3ncn(C4CCCC4)c3n2)CC1 (mixture of isomers) [compound 156, (±)-trans-4-[2-(4-Amino-cyclohexylamino)-9-cyclopentyl-9H-purin-6-ylamino]-piperidine-1-carboxylic acid (2-phenyl-cyclopropyl)-amide dihydrochloride] | 0.28 | 0.39 | 79 | 1620 | 75
6 | N[C@H]1CC[C@H](Nc2nc(NC3CCN(C(=O)c4ccccc4Br)CC3)c3ncn(C4CCCC4)c3n2)CC1 [compound 13, trans-1-{4-[2-(4-Amino-cyclohexylamino)-9-cyclopentyl-9H-purin-6-ylamino]-piperidin-1-yl}-1-(2-bromo-phenyl)-methanone] | 2.89 | 2.55 | 364 | 373 | 197
7 | N[C@H]1CC[C@H](Nc2nc(NC3CCN(C(=O)c4c(Cl)cccc4Cl)CC3)c3ncn(C4CCCC4)c3n2)CC1 [compound 14, trans-1-{4-[2-(4-Amino-cyclohexylamino)-9-cyclopentyl-9H-purin-6-ylamino]-piperidin-1-yl}-1-(2,6-dichloro-phenyl)-methanone] | 2.98 | 2.99 | 514 | 17 | 164
8 | N[C@H]1CC[C@H](Nc2nc(NC3CCN(C(=O)c4ccc(Cl)c(Cl)c4)CC3)c3ncn(C4CCCC4)c3n2)CC1 [compound 15, trans-1-{4-[2-(4-Amino-cyclohexylamino)-9-cyclopentyl-9H-purin-6-ylamino]-piperidin-1-yl}-1-(3,4-dichloro-phenyl)-methanone] | 0.67 | 0.74 | 291 | 732 | 61
9 | CCCCc1ccc(C(=O)N2CCC(Nc3nc(N[C@H]4CC[C@H](N)CC4)nc4c3ncn4C3CCCC3)CC2)cc1 [compound 21, trans-1-{4-[2-(4-Amino-cyclohexylamino)-9-cyclopentyl-9H-puxin-6-ylamino]-piperidin-1-yl}-1-(4-butyl-phenyl)-methanone] | 1.43 | 1.45 | 121 | – | –
10 | CCCCCCCc1ccc(C(=O)N2CCC(Nc3nc(N[C@H]4CC[C@H](N)CC4)nc4c3ncn4C3CCCC3)CC2)cc1 [compound 24, trans-1-{4-[2-(4-Amino-cyclohexylamino)-9-cyclopentyl-9H-purin-6-ylamino]-piperidin-1-yl}-1-(4-heptyl-phenyl)-methanone] | 2.18 | 3.97 | – | – | –
11 | N[C@H]1CC[C@H](Nc2nc(NC3CCN(C(=O)c4ccc([N+](=O)[O-])cc4)CC3)c3ncn(C4CCCC4)c3n2)CC1 [compound 27, trans-1-{4-[2-(4-Amino-cyclohexylamino)-9-cyclopentyl-9H-purin-6-ylamino]-piperidin-1-yl}-1-(4-nitro-phenyl)-methanone] | 1.73 | 2 | – | – | –
12 | CC(C)=CC(=O)N1CCC(Nc2nc(N[C@H]3CC[C@H](N)CC3)nc3c2ncn3C2CCCC2)CC1 [compound 30, trans 1-{4-[2-(4-Amino-cyclohexylamino)-9-cyclopentyl-9#H!-purin-6-ylamino]-piperidin-1-yl}-3-methyl-but-2-en-1-one dihydrochloride] | 0.75 | 0.8 | 77 | – | –
13 | N[C@H]1CC[C@H](Nc2nc(NC3CCN(C(=O)/C=C/c4ccccc4)CC3)c3ncn(C4CCCC4)c3n2)CC1 [compound 62, trans-(E)-1-{4-[2-(4-Amino-cyclohexylamino)-9-cyclopentyl-9H-purin-6-ylamino]-piperidin-1-yl}-3-phenyl-propenone dihydrochloride] | – | – | 66 | – | –
14 | N[C@H]1CC[C@H](Nc2nc(NC3CCN(C(=O)OCc4ccccc4)CC3)c3ncn(C4CCCC4)c3n2)CC1 [compound 90, trans-4-[2-(4-Amino-cyclohexylamino)-9-cyclopentyl-9H-purin-6-ylamino]-piperidine-1-carboxylic acid benzyl ester dihydrochloride] | 0.38 | 0.58 | – | – | –
15 | CC(C)COC(=O)N1CCC(Nc2nc(N[C@H]3CC[C@H](N)CC3)nc3c2ncn3C2CCCC2)CC1 [compound 91, trans-4-[2-(4-Amino-cyclohexylamino)-9-cyclopentyl-9H-purin-6-ylamino]-piperidine-1-carboxylic acid isobutyl ester dihydrochloride] | 0.36 | 0.37 | – | – | –
16 | CCCOC(=O)N1CCC(Nc2nc(N[C@H]3CC[C@H](N)CC3)nc3c2ncn3C2CCCC2)CC1 [compound 96, trans-4-[2-(4-Amino-cyclohexylamino)-9-cyclopentyl-9H-purin-6-ylamino]-piperidine-1-carboxylic acid propyl ester dihydrochloride] | 0.35 | 0.35 | – | – | –
17 | CCCCCCOC(=O)N1CCC(Nc2nc(N[C@H]3CC[C@H](N)CC3)nc3c2ncn3C2CCCC2)CC1 [compound 98, trans-4-[2-(4-Amino-cyclohexylamino)-9-cyclopentyl-9H-purin-6-ylamino]-piperidine-1-carboxylic acid hexyl ester dihydrochloride] | 0.66 | 0.82 | – | – | –
18 | COc1cc(COC(=O)N2CCC(Nc3nc(N[C@H]4CC[C@H](N)CC4)nc4c3ncn4C3CCCC3)CC2)c([N+](=O)[O-])cc1OC [compound 101, trans-4-[2-(4-Amino-cyclohexylamino)-9-cyclopentyl-9H-purin-6-ylamino]-piperidine-1-carboxylic acid 4,5-dimethoxy-2-nitro-benzyl ester dihydrochloride] | 0.24 | 0.27 | 80 | – | 31
19 | CC(C)(C)COC(=O)N1CCC(Nc2nc(N[C@H]3CC[C@H](N)CC3)nc3c2ncn3C2CCCC2)CC1 [compound 103, trans-4-[2-(4-Amino-cyclohexylamino)-9-cyclopentyl-9H-purin-6-ylamino]-piperidine-1-carboxylic acid 2,2-dimethyl-propyl ester dihydrochloride] | 0.51 | 0.44 | – | – | –
20 | N[C@H]1CC[C@H](Nc2nc(NC3CCN(S(=O)(=O)c4cccs4)CC3)c3ncn(C4CCCC4)c3n2)CC1 [compound 128, trans-N^2&-(4-Amino-cyclohexyl)-9-cyclopentyl-N^6-[1-(thiophene-2-sulfonyl)-piperidin-4-yl]-9H-purine-2,6-diamine dihydrochloride] | 0.49 | 0.57 | 7 | – | –
21 | Cc1cccc(NC(=O)N2CCC(Nc3nc(N[C@H]4CC[C@H](N)CC4)nc4c3ncn4C3CCCC3)CC2)c1 [compound 210, trans-4-[2-(4-Amino-cyclohexylamino)-9-cyclopentyl-9H-purin-6-ylamino]-piperidine-1-carboxylic acid (3-methyl-phenyl)-amide dihydrochloride] | – | – | 28 | 74 | 20
